Experimental data reported in patent US10933141B2, “Formulations with reduced degradation of polysorbate” (Genentech, Inc., priority 2015, dated 2021).
Entries after “also recorded” stand apart in the source; their conditions may differ.

Assay: Solubilization of existing visible and subvisible particles from enzymatic PS20 degradation (HIAC, Seidenader)
Format: physicochemical
Conditions: for amount of SVP after excipient spiked into degraded PS20 solution: 0.05% PS20 degraded with 37.5 μg/mL PPL, 35.5 mM HP-α-CD or HP-γ-CD, 0.5-15% HP-β-CD, 5° C. overnight, HIAC
Method: Subvisible particles were measured using a HIAC 9703 particle counter equipped with an HRDL-150 detector and a 1 mL syringe. Performance of the instrument was verified with NIST-traceable 2 μm Polystyrene bead standards at 3000 counts/mL before each measurement session. The HIAC instrument was configured to a 10 mL/min flow rate, 0.1 mL tare volume, and 0.4 mL sample volume. The samples were analyzed using 4 runs of 0.4 mL sips, with the first run of each sample was discarded to prevent measurement error due to sample carryover. Results were reported as the average values for 1.4, 2, 5, 10, 15, and 25, 50 μm analysis filter sizes.
Vials were inspected for visible particulates using a Seidenader V90-T visual inspection unit (Markt Schwaben, Germany) with vial carriage tilted to 60 degrees. Visible particle inspection of samples was performed by placing the glass vials in the holder and rotating in the presence of a Tyndall light directed through the bottom of the vial. Pre-rotation (i.e., fast rotation) was first performed to agitate the liquids, suspend, and circulate particles. Following rotation and illumination, the particles are in motion and the light causes reflections of the particles that make them visible (i.e., Tyndall effect). Visible particles were then observed using a magnifying lens. Videos and photographs of visible particles were obtained using a Samsung (seoul, South Korea) Galaxy device.
Several excipients were tested for their ability to solubilize particles produced as a result of enzymatic PS20 degradation. Solutions of concentrated HP-α-CD, HP-β-CD, HP-γ-CD, SBE-β-CD, PVP, PEG 1500, sucrose, and methionine were prepared in triplicate in pH 5.5 buffer. Particles from enzymatic PS20 degradation were prepared. Three solutions of 0.05% PS20 in pH 5.5 buffer were enzymatically degraded with 37.5 μg/mL PPL for 4.5 hours at room temperature, followed by 30 minutes of heat inactivation at 85° C. The degraded PS20 solutions were placed at 5° C. to allow for crystallization of particles.
After particle formation in the degraded PS20 solutions, the remaining sample preparation was conducted in a 5° C. cold room to prevent the PS20 derived particles from dissolving. Each degraded PS20 solution was divided into 11 aliquots and concentrated excipient was spiked into each the aliquots. The final concentration of excipient in each sample was as follows: 5% sucrose, 10 mg/mL methionine, 5% PVP, 5% PEG 1500, 15% HP-β-CD, 5% HP-β-CD, 0.5% HP-β-CD, 35.5 mM HP-α-CD, 35.5 mM HP-γ-CD, and 35.5 mM SBE-β-CD. After the addition of each excipient, samples were left at 5° C. overnight. The following day, vials were inspected for visible particles under a Seidenader visual inspection instrument. Subvisible particle counts were measured using a HIAC 9703 particle counter.

| Substance | amount of SVP after excipient spiked into degraded PS20 solution | visible particles after spiking excipient (15% (w/v) HP-β-CD, PS20 particles from PPL digestion) |
| --- | --- | --- |
| 2-hydroxypropyl-α-cyclodextrin [HP-α-CD] | significantly reduce the amount of SVP | – |
| 2-hydroxypropyl-β-cyclodextrin [HP-β-CD] | significantly reduce the amount of SVP | immediate solubilization of visible particles; also recorded: no visible particles |
| 2-hydroxypropyl-γ-cyclodextrin [HP-γ-CD] | significantly reduce the amount of SVP | – |
